Consider nine compounds from patent US12459951B2, “Compounds that interact with RAS superfamily proteins for treatment of cancers, inflammatory diseases, rasopathies, and fibrotic disease” (SHY Therapeutics, LLC, priority 2022, dated 2025).

The test system of one test is Erk1/2 phosphorylation. As to the kind of experiment: Erk1/2 Phosphorylation Assay (western blot), Panc-1. It is filed as cell-based, human. Conditions: at 10 μM, * = activation. On the procedure: Protocol for Western Erk1/2 Cell-Based Phosphorylation Assay
This assay is referred to as the “Erk1/2 Phosphorylation Assay” throughout this application.
Cell lines: Human tumor-derived pancreatic cancer cell line Panc-1 (expressing KRas G12D mutant) was purchased from American Type Culture Collection and grown in complete DMEM-High Glucose medium, supplemented with penicillin (100 U/mL), streptomycin (100 μg/mL), and 10% heat-inactivated FBS at 37° C. in a humidified incubator with 5% CO2.
Method 1: Cells were plated at 350000 cells/well density in a 12-well plate, allowed 3 hours to adhere to the plate, then starved in the appropriate medium in the presence of 0.5% FBS overnight. The small molecules to be tested were added to the cells in the final concentration of 10 μM in the presence of 0.3% DMSO for 6 hours incubation at 37° C. For IC50 value determination, serial dilutions of compounds were added to cells under the same conditions. Next, cells were stimulated with 1.5 ng/ml EGF for 15 minutes then cells were lysed with lysis buffer containing 1% Triton X-100, EDTA, and Halt™ Protease & Phosphatase Inhibitor Cocktail (Thermo Scientific). Protein concentration was assessed by BCA protein assay (Thermo Scientific). Phosphorylation level of Erk1/2 was determined by western blot.
Method 2: Cells were plated at 350000 cells/well density in a 12-well plate in 10% FBS. The next day small molecules to be tested were added to the cells in the final concentration of 10 μM in the presence of 0.3% DMSO for 6 hours incubation at 37° C. For IC50 value determination, serial dilutions of compounds were added to cells under the same conditions. Next, cells were lysed with lysis buffer containing 1% Triton X-100, EDTA, and Halt™ Protease & Phosphatase Inhibitor Cocktail (Thermo Scientific). Protein concentration was assessed by BCA protein assay (Thermo Scientific). Phosphorylation level of Erk1/2 was determined by western blot.
Western blot protocol: Equal amounts of protein (15-50 μg) were separated by SDS-PAGE and transferred to nitrocellulose membranes (Invitrogen by Thermo Fisher Scientific). The membrane was stained with Ponceau S Stain (Boston BioProducts) to verify uniform protein loading. Membranes were blocked with 10% milk and phosphorylation levels of Erk1/2 were assessed by incubating overnight at 4° C. with anti-phospho-p44/42 (Thr202/Tyr204) antibody (Cell Signaling) followed by HRP-conjugated secondary antibody (Jackson Immunoresearch, West Grove, PA). Bands were incubated in Amersham ECL Prime Western Blotting Detection Reagent (GE Healthcare) and visualized using the ChemiDoc MP imaging system (Bio-Rad).
A general note: Immunoblotting shows a protein as a band on a membrane.

The next test has as its system KRas wild type. Description: Ras GTP Binding Domain Inhibition Assay (Ras Superfamily Assay). Conditions: 20 μM compound; for KRas wild type + SOS: % inh.: with SOS; for KRas wild type: % inh.: without SOS. From the text:
(§1) Biological Example 3: Ras GTP Binding Domain Inhibition Assay
(§2) The assays described in Example 3 are collectively referred to as the “Ras Superfamily Assay” throughout this application.
(§3) A Ras Superfamily Activity Assay (as disclosed in International Application No. PCT/US2018/038613, filed Jun. 20, 2018, which is incorporated by reference in its entirety) was used as a specific assay to evaluate compounds against the following for the following Ras Superfamily proteins: KRas wild type, KRas Q61H mutant, KRas G12C mutant, KRas G12D mutant, Rac-1, and Rho-A.
(§4) • 25 mM Tris-HCl, pH 7.4 • 27 mM KCl • 137 mM NaCl • 1 mM MgCl2 • 1 mM DTT Buffer-II: • 50 mM Tris-HCl, pH 7.0 • 1 mM MgCl2 • 1 mM DTT
(§5) The small GTPases proteins: KRas wild type. KRas Q61H mutant, KRas G12C mutant, KRas G12D mutants, Rac-1, and Rho-A were expressed as His-tagged proteins. In addition, the Guanosine nucleotide Exchange Factor (GEF) Sos protein (residues 556-1049) was expressed as a His-tagged protein. In cells, the guanine nucleotide exchange factor Sos protein promotes activation of Ras proteins by stimulating an exchange of GDP for GTP. The inclusion of Sos to the Ras GTP binding domain inhibition assay may be considered as an alternative representation of physiological cellular conditions for evaluating the inhibitory activity of some of the tested small molecules.
(§6) For the assay, all purified small GTPases proteins were diluted in Buffer-I or Buffer-II to a final concentration of 10-30 μg/mL. 200 μL of each diluted protein was added to a nickel-coated 96-well plate and incubated overnight at 4° C. Then the protein solution was discarded and 200 μL of Buffer-I or Buffer-II was added to each well in the presence of 1% DMSO. Compounds to be tested were added to the protein-coated wells at final concentration of 20 μM, and incubated for 3 hours at room temperature with and without 10-30 μg/mL of Sos added to the final hour of the incubation. When performing IC50 measurements a serial dilution of all tested concentrations was added. Then Cy3-GTP or Cy5-GTP was added to each well to a final concentration of 100 nM. The labeled GTP was incubated for 45 minutes at room temperature. Following GTP incubation, wells were washed 3× in Buffer-I or Buffer-II and 200 μL of Buffer-I or Buffer-II was added to each well. Following washes, the amount of bound labeled-GTP was measured using a SpectraMax M3 (Molecular Devices).

The test system of the next test is KRas G12D mutant. The test is described as above. Conditions: 20 μM compound; for KRas G12D mutant + SOS: % inh.: with SOS; for KRas G12D mutant: % inh.: without SOS.
Excerpt: as §1, §2, §3, §4, §5, §6

The target in another test is T1, Rac-1 (Homo sapiens, UniProt P63000).
T1 construct: made in house
Described as above. Conditions: read-out: Rac-1: % inh.
Excerpt: as §1, §2, §3, §4, §5, §6

Regarding `COc1cnc(Nc2nc(-c3nccn3C)nn3cc(-c4ccn(C)n4)c(C)c23)cn1` [Compound 110, N-(5-Methoxypyrazin-2-yl)-5-methyl-2-(1-methyl-1H-imidazol-2-yl)-6-(1-methyl-1H-pyrazol-3-yl)pyrrolo[2,1-f][1,2,4]triazin-4-amine], in the test with Erk1/2 phosphorylation, the “% inh of Erk1/2 phosphorylation in Panc-1” value (“% inh … in Panc-1” for short) is “B* (26-49% activation)”. Further, in the test on KRas wild type, the “KRas wild type + SOS: % inh.” value is “C (C = 50-75% inhibition)” and the “KRas wild type: % inh.” value was “B (B = 26-49% inhibition)”. Further, in the test on KRas G12D mutant, the “KRas G12D mutant + SOS: % inh.” value is recorded as “B (B = 26-49% inhibition)” and the “KRas G12D mutant: % inh.” value is given as “C (C = 50-75% inhibition)”. Also, on Rac-1, the inhibition at 20 µM is 50 to 75%.
With `Cc1c(-c2ccn(C3CC3)n2)cn2nc(-c3nccn3C)nc(Nc3cc(OCCCO)ccn3)c12` [Compound 149, 3-((2-((6-(1-Cyclopropyl-1H-pyrazol-3-yl)-5-methyl-2-(1-methyl-1H-imidazol-2-yl)pyrrolo[2,1-f][1,2,4]triazin-4-yl)amino)pyridin-4-yl)oxy)propan-1-ol], in the test on Erk1/2 phosphorylation, the “% inh … in Panc-1” value is “D* (85-100% activation)”. Besides, in the test on KRas wild type, the “KRas wild type + SOS: % inh.” value is recorded as “D (D = 76-100% inhibition)” and the “KRas wild type: % inh.” value is listed as “D (D = 76-100% inhibition)”. In the test on KRas G12D mutant, the “KRas G12D mutant + SOS: % inh.” value is recorded as “D (D = 76-100% inhibition)” and the “KRas G12D mutant: % inh.” value is listed as “D (D = 76-100% inhibition)”. Moreover, the inhibition at 20 µM on Rac-1 lay within 76 to 100%.
For the compound `Cc1c(-c2ccn(C)n2)cn2nc(-c3nccn3C)nc(Nc3cc(OC4CC4)ccn3)c12` [Compound 126, N-(4-Cyclopropoxypyridin-2-yl)-5-methyl-2-(1-methyl-1H-imidazol-2-yl)-6-(1-methyl-1H-pyrazol-3-yl)pyrrolo[2,1-f][1,2,4]triazin-4-amine], the “% inh … in Panc-1” value in the test on Erk1/2 phosphorylation was “D* (85-100% activation)”. Besides, in the test on KRas wild type, the “KRas wild type + SOS: % inh.” value is reported as “A (A = 1-25% inhibition)” and the “KRas wild type: % inh.” value is listed as “A (A = 1-25% inhibition)”. In addition, in the test with KRas G12D mutant, the “KRas G12D mutant + SOS: % inh.” value is on record as “B (B = 26-49% inhibition)” and the “KRas G12D mutant: % inh.” value is “B (B = 26-49% inhibition)”. The inhibition at 20 µM at Rac-1 lay in the range of 26 to 49%.
On to `Cc1c(-c2ccn(C(C)C)n2)cn2nc(-c3nccn3C)nc(Nc3cc(OCCO)ncn3)c12` [Compound 97, 2-((6-((6-(1-Isopropyl-1H-pyrazol-3-yl)-5-methyl-2-(1-methyl-1H-imidazol-2-yl)pyrrolo[2,1-f][1,2,4]triazin-4-yl)amino)pyrimidin-4-yl)oxy) ethan-1-ol], for which, in the test with Erk1/2 phosphorylation, the “% inh … in Panc-1” value was “D* (85-100% activation)”. Besides, in the test on KRas wild type, the “KRas wild type + SOS: % inh.” value is listed as “D (D = 76-100% inhibition)” and the “KRas wild type: % inh.” value is reported as “D (D = 76-100% inhibition)”. Besides, in the test on KRas G12D mutant, the “KRas G12D mutant + SOS: % inh.” value is “D (D = 76-100% inhibition)” and the “KRas G12D mutant: % inh.” value was “D (D = 76-100% inhibition)”. Also, on Rac-1, the inhibition at 20 µM lay within 76 to 100%.
As for `CO[C@H]1CC[C@@H](Nc2nc(-c3ccccn3)nn3cc(-c4ccn(C(C)C)n4)c(C)c23)C1` (racemic) [Compound 9, rac 6-(1-Isopropyl-1H-pyrazol-3-yl)-N-((1R,3S)-3-methoxycyclopentyl)-5-methyl-2-(pyridin-2-yl)pyrrolo[2,1-f][1,2,4]triazin-4-amine], in the test on Erk1/2 phosphorylation, the “% inh … in Panc-1” value is 0 (0% inhibition). In the test with KRas wild type, the “KRas wild type + SOS: % inh.” value is listed as 0 (0 = 0% inhibition) and the “KRas wild type: % inh.” value is given as 0 (0 = 0% inhibition). Besides, in the test with KRas G12D mutant, the “KRas G12D mutant + SOS: % inh.” value is on record as 0 (0 = 0% inhibition) and the “KRas G12D mutant: % inh.” value is given as 0 (0 = 0% inhibition). Also, the inhibition at 20 µM on Rac-1 was determined as 0%.
For the compound `CCOc1ccnc(Nc2nc(-c3nccn3C)nn3cc(-c4ccn(C5CC5)n4)c(C)c23)c1` [Compound 141, 6-(1-Cyclopropyl-1H-pyrazol-3-yl)-N-(4-ethoxypyridin-2-yl)-5-methyl-2-(1-methyl-1H-imidazol-2-yl)pyrrolo[2,1-f][1,2,4]triazin-4-amine], the “% inh … in Panc-1” value in the test with Erk1/2 phosphorylation was “B (26-49% inhibition)”. In the test with KRas wild type, the “KRas wild type + SOS: % inh.” value was “B (B = 26-49% inhibition)” and the “KRas wild type: % inh.” value is reported as “C (C = 50-75% inhibition)”. In the test on KRas G12D mutant, the “KRas G12D mutant + SOS: % inh.” value was “D (D = 76-100% inhibition)” and the “KRas G12D mutant: % inh.” value is “D (D = 76-100% inhibition)”. In addition, at Rac-1, the inhibition at 20 µM lay in the range of 76 to 100%.
`Cc1c(-c2ccn(C)n2)cn2nc(-c3nccn3C)nc(Cl)c12` [Compound 99, 4-Chloro-5-methyl-2-(1-methyl-1H-imidazol-2-yl)-6-(1-methyl-1H-pyrazol-3-yl)pyrrolo[2,1-f][1,2,4]triazine]: in the test on Erk1/2 phosphorylation, the “% inh … in Panc-1” value is given as “D* (85-100% activation)”. Also, in the test with KRas wild type, the “KRas wild type + SOS: % inh.” value is “B (B = 26-49% inhibition)” and the “KRas wild type: % inh.” value is on record as “C (C = 50-75% inhibition)”. In the test on KRas G12D mutant, the “KRas G12D mutant + SOS: % inh.” value is listed as “B (B = 26-49% inhibition)” and the “KRas G12D mutant: % inh.” value is “B (B = 26-49% inhibition)”. Further, the inhibition at 20 µM at Rac-1 was in the range of 50 to 75%.
As to `Cc1c(-c2ccn(C3CC3)n2)cn2nc(-c3nccn3C)nc(Nc3cc(OCCCN(C)C)ccn3)c12` [Compound 148, 6-(1-Cyclopropyl-1H-pyrazol-3-yl)-N-(4-(3-(dimethylamino)propoxy)pyridin-2-yl)-5-methyl-2-(1-methyl-1H-imidazol-2-yl)pyrrolo[2,1-f][1,2,4]triazin-4-amine], in the test on Erk1/2 phosphorylation, the “% inh … in Panc-1” value is “C* (46-84% activation)”. Besides, the inhibition at 20 µM on Rac-1 turned out to be 0%.
`Cc1c(-c2ccn(C3CC3)n2)cn2nc(-c3nccn3C)nc(Nc3cc(OCCN(C)C)ccn3)c12` [Compound 147, 6-(1-Cyclopropyl-1H-pyrazol-3-yl)-N-(4-(2-(dimethylamino)ethoxy)pyridin-2-yl)-5-methyl-2-(1-methyl-1H-imidazol-2-yl)pyrrolo[2,1-f][1,2,4]triazin-4-amine]: in the test with Erk1/2 phosphorylation, the “% inh … in Panc-1” value is recorded as “A* (1-25% activation)”. Further, the inhibition at 20 µM on Rac-1 was 0%.
